Data as given in patent US20150037832A1, “METHODS OF FACILITATING THE BIOCONVERSION OF CRUDE BIODIESEL-DERIVED GLYCEROL BY MICROORGANISMS” (priority 2011, published 2015).
“And” between values parts separate entries of the source, which are not always exact repeats. Equal values may be shown once. Read-outs that look alike come from different tables or passages of the source.

Key:
[1] = tested on: Clostridium pasteurianum ATCC 6013; experiment: Effect of impurities on glycerol fermentation; assay type: cell-based; details: for substrate utilization: fatty acid sodium salt at 5%, 10% and 15% (w/w) of initial substrate; for substrate utilization / growth and product yield: 25 g/L pure glycerol; for growth and product yield: salt at 2.5, 5, 7.5 and 10% (w/w) of initial glycerol
Procedure: Defined media was used for glycerol utilization.
To study the effect of impurities in crude glycerol, various concentrations of each impurity were added to the media containing 25 g/L pure glycerol. Methanol was added at 2.5 g/L and 5 g/L. Potassium chloride and potassium sulfate were added at 2.5, 5, 7.5 and 10% (w/w) of the initial glycerol concentration. The fatty acids were added in the form of sodium salts of steric acid, oleic acid and linoleic acid at 5, 10 and 15% (w/w) (of initial substrate conc.). The media containing 25 g/L of pure glycerol was used as the control. The effects of fatty acids were also studied by partially purifying the crude glycerol by precipitating the fatty acids using concentrated hydrochloric acid. The crude glycerol was diluted in deionized water at a ratio of 1:3 and hydrochloric acid was added to lower pH to between 2 and 3. At this pH the fatty acids precipitated and were removed by centrifugation at 5000 rpm for 15 minutes. The precipitated fatty acids were later analyzed using NMR by dissolving them in d-DMSO.

[2] = tested on: Clostridium pasteurianum ATCC 6013; experiment: Growth (optical density, μmax) and pH profiles of batch cultures; assay type: cell-based; details: for maximum specific growth rate, μmax: exponential log phase, 20 g/L glycerol and/or 10 g/L sugar; for effect on maximum optical density: 2 g/L sodium salt in 25 g/L pure glycerol
Procedure: (§1) Pre-cultures for glycerol utilization experiments were grown in RCM. The growth was monitored using optical density (λ=600 nm) and the cultures were used as inoculum once they reached the mid-exponential phase of growth. 100 mL of Biebl medium with appropriate carbon sources was inoculated with 10% inoculum and the contents were split equally into three in a 75 mL culture flask. All experiments were carried out in batch cultures and in triplicates. The cultures were monitored for growth, substrate utilization and product formation as mentioned earlier.
The co-fermentation of sugars was studied using hexose (dextrose) and pentose (D-xylose and L-arabinose) with 20 g/L of pure glycerol at a concentration of 10 g/L of the sugars, maintaining a 2:1 ratio of glycerol and sugars. Cells grown on glycerol or sugar alone were used as controls. […] Acetate and butyrate were studied at concentrations of 2 g/L with an initial glycerol concentration of 25 g/L of pure glycerol. Biotin was supplemented in the media at 0.8 mg/L with an initial concentration of 25 g/L of pure glycerol.

[3] = tested on: Clostridium pasteurianum ATCC 6013; experiment: Product yields and substrate utilization of fermentation (HPLC); details: for effect of addition on butanol / product formation: added to glycerol fermentation; for 1,3-PDO yield / conversion: sole carbon source
Procedure: Freeze dried pure cultures of C. pasteurianum were revived using nutrient rich reinforced clostridal growth media (RCM) and glycerol stock cultures were prepared for future use. […] Pre-culture for glycerol utilization experiments were grown in RCM. The growth was monitored using optical density and the cultures were used as inoculum once they reached mid-exponential phase of growth. The growth experiments were conducted in 75 mL culture flasks containing 40 mL of the media and 5 mL of inoculum. Defined media was used for glycerol utilization. Unless otherwise specified purified glycerol or biodiesel derived crude glycerol were used as the sole carbon source. All experiments were conducted in an anaerobic chamber (95% N2 and 5% H2) at a temperature of 37° C. to ensure oxygen-free conditions.
as §1
The co-fermentation of sugars was studied using hexose (dextrose) and pentose (D-xylose and L-arabinose) with 20 g/L of pure glycerol at a concentration of 10 g/L of the sugars, maintaining a 2:1 ratio of glycerol and sugars. Cells grown on glycerol or sugar alone were used as controls.

[4] = tested on: C. acetobutylicum; details: butyrate addition at 2 g/L, reported; cited from earlier work
[5] = tested on: Clostridium pasteurianum ATCC 6013
Procedure: The cell membrane was extracted using dichloromethane/methanol mixtures. The membrane extracted in dichloromethane was separated by evaporating the solvents under a gentle nitrogen stream. This dry film of the membrane was used for further analysis.
The dry film of the membrane was dissolved in deuterated chloroform for NMR analysis. Synthetic lipids such as Diaplmitoylphosphotidylcholine (DPPC) and Dioleylphosphotidylcholine (DOPC) were used as standards for NMR analysis. The dry films of the membrane lipids were labeled with DPH (500:1) and made into liposomes for analyzing the stability of the membrane by studying the fluorescence anisotropy using a Perkin-Elmer LS50B.

[6] = L-arabinose added to glycerol, vs glycerol alone
[7] = endogenously produced butanol, defined media, varied glycerol concentration
[8] = exogenous butanol 2 g/L to 20 g/L, defined media with 50 g/L glucose and RCM

With CCCCC/C=C\C/C=C\CCCCCCCC(=O)[O-].[Na+] [sodium linoleate] the substrate utilization [1] was “completely inhibited”.

In the case of O=S(=O)([O-])[O-].[K+].[K+] [potassium sulfate], the “growth and product yield” value [1] is reported as “no detrimental effect on growth and product yield”.

For O=C[C@H](O)[C@@H](O)[C@@H](O)CO [L-arabinose], the “maximum specific growth rate, μmax” value [2] was 0.933 ± 0.054 day⁻¹, the ethanol yield ([3]; L-arabinose added to glycerol) was 0.10 g/g and the “increase of 1,3-PDO yield” value [3, 6] was 65%. For the same molecule, the “increase of ethanol yield” value [3, 6] was 5 fold, the “1,3-PDO and ethanol as share of overall products” value ([3]; L-arabinose as carbon source) was 85% and the “effect of addition on butanol / product formation” value [3] was “does not affect the yield of butanol”. The “ratio of butanol/1,3-PDO” value ([3]; addition of L-arabinose to glycerol) was 0.64, the “1,3-PDO maximum yield” value ([3]; control, L-arabinose sole carbon source) was 36.5 % (g/g) and the “1,3-PDO yield / conversion” value ([3]; control) was 28 % (g/g). The “Ethanol and 1,3-PDO as share of the products yielded” value ([3]; cultures on arabinose) was ~86 % (mol/mol) and the “1,3-PDO yield” value ([3]; sugar 10 g/L added as co-substrate to 20 g/L glycerol, with respect to glycerol) was 0.33 g/g.

With CCCCCCCCCCCCCCCCCC(=O)[O-].[Na+] [sodium stearate] the substrate utilization [1] was “not affected”.

In the case of CCCC(=O)[O-].[Na+] [butyrate, sodium butyrate], the “effect on maximum optical density” value [2] is given as “slightly lower maximum optical density”, the “lowering of the maximum optical density” value ([2]; butyrate 2 g/L in 25 g/L pure glycerol) is given as 20% and the “increase of butanol production” value [4] is given as 1.6 folds. For the same molecule, the “effect of addition on butanol / product formation” value [3] was “did not increase butanol production”.

In the case of O=C(O)CCCC[C@@H]1SC[C@@H]2NC(=O)N[C@@H]21 [biotin], the “increase in butanol formation” value ([3]; supplement (acetate 2 g/L, biotin 0.8 mg/L) in 25 g/L pure glycerol, vs control) is reported as 18% and ~25%.

With CO [methanol] the “growth or product formation during the fermentation of glycerol” value ([1]; methanol at 2.5 g/l and 5 g/L in media with 25 g/L pure glycerol) was “no reduction in growth or product formation”.

For butanol, the anisotropy of membrane [5, 7] was “corresponding increase in anisotropy”, the “degree of unsaturation of membrane fatty acids” value [5, 7] was “a decrease in the degree of unsaturation” and the anisotropy of membrane [5, 8] was “found to decrease”. The “degree of unsaturation of membrane fatty acids” value [5, 8] was “observed to increase”.

With OCC(O)CO [Glycerol, glycerol] the “maximum specific growth rate, μmax” value [2] was 1.562 ± 0.118 day⁻¹, the butanol yield ([3]; control experiment with glycerol) was 22 % (g/g) and the “1,3-PDO yield / conversion” value ([3]; control) was 20 % (g/g).

With CC(=O)[O-].[Na+] [acetate, sodium acetate] the “effect on maximum optical density” value [2] was “small increase in the maximum optical density”, the “decrease in 1,3-PDO production” value [3] was 33% and the “increase in butanol formation” value [3] was ~25% and 23%.

In the case of [Cl-].[K+] [Potassium chloride], the “growth and product yield” value [1] is reported as “no detrimental effect on growth and product yield”.

With CCCCCCCC/C=C\CCCCCCCC(=O)[O-].[Na+] [sodium oleate] the substrate utilization [1] was “not affected”.

In the case of O=C[C@H](O)[C@@H](O)[C@H](O)CO [D-xylose], the “maximum specific growth rate, μmax” value [2] is reported as 0.794 ± 0.390 day⁻¹, the “acetate, 1,3-PDO and ethanol as share of the overall products” value ([3]; D-xylose as sole carbon source) is reported as 88% and the product formation ([3]; D-xylose as sole carbon source) is reported as 0.78 g/g. The “effect of addition on butanol / product formation” value [3] was “did not result in an increase in the formation of any of the products”, the “utilization of D-xylose” value ([3]; addition of D-xylose to glycerol fermentation, 2:1) was 25±16% and the “D-xylose left unconsumed in the media” value ([3]; co-fermentation of glycerol with xylose) was “more than 90%”.
